The text below walks through data of US20050130890A1, “Amyloid beta is a ligand for FPR class receptors” (priority 2001, published 2005).

For experiment [1], the system named is macrophages. Briefly: Congo red histochemistry of macrophages (fibril formation). It is filed as cell-based, human. The method, then:
Congo red histochemistry. Cells on chamber slides were fixed with 4% paraformaldehyde and stained with hematoxylin for 2 min at room temperature. After 20 min incubation in a saturated NaCl solution containing 80% ethanol and 0.1% NaOH, the slides were reacted for 20 min with 0.2% Congo red. Destaining and dehydration were completed by washing the slides sequentially in 95% ethanol and 100% ethanol, followed by xylene. Coverslips were applied using Permount and the slides were viewed under light microscopy.

The subject of experiment [2] is macrophages. In words: Apoptosis of macrophages (annexin-V-FITC/PI flow cytometry). It is filed as cell-based, human. The conditions noted are these: 48 h; 10 μM Aβ42 or 1 μM W pep. The method, then: (§1) Detection of apoptosis. Apoptotic cells were detected by double labeling with annexin-V-FITC and propidium iodide (P1). Annexin-V binds to phosphatidylserine residues, which are translocated from the inner to the outer leaflet of the plasma membrane during the early stages of apoptosis (Koopman G. et al. 1994 Blood 84:1415-1420; Martin S. J. et al. 1995 J Exp Med 182:1545-1556). Necrotic cells were distinguished from annexin-V-positive cells by counterstaining with PI (final concentration 1 μg/ml) (Heidenreich S. et al. 1997 J Immunol 159:3178-3188; Mangan D. F. et al. 1991 J Immunol 146:1541-1546. Apoptotic cells were labeled by using an annexin-V kit according to manufacturer's instructions (Santa Cruz Biotechnology, Santa Cruz, Calif.) and analyzed by flow cytometry.
(A flow cytometer gives signals particle by particle.)

Experiment [3] addresses T1, FPRL1 (Homo sapiens, UniProt P25090).
T1 construct: expressed in transfected cells; host or cells: HEK 293
T1 sequence (P25090 1-351): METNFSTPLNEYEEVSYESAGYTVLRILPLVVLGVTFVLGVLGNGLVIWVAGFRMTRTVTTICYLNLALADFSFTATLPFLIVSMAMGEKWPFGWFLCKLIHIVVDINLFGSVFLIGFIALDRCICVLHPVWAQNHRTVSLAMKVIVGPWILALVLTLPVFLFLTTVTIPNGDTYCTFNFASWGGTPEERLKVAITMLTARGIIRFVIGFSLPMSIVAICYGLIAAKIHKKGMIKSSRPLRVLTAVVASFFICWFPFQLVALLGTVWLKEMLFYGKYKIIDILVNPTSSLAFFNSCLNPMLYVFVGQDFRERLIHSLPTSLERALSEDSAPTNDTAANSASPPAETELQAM
In words: FPRL1 internalization in FPRL1/293 cells, fluorescence confocal microscopy. It is filed as cell-based. The method, then: (§2) Human peripheral blood monocytes (PBM) were isolated from Buffy coats (Transfusion Medicine Department, NIH Clinical Center, Bethesda, Md.) by using iso-osmotic Percoll gradient. The purity of cell preparations by morphology was >90%. PBM were further differentiated to macrophages by culturing the cells in RPMI 1640 medium containing 0.1% bovine serum albumin, 0.01M HEPES (pH 7.4), and 20 ng/ml monocyte colony stimulating factor (MCSF, Pepro Tech, Rocky Hill, N.J.). The cells were plated on 4-well chamber slides (Nalge Nunc International, Rochester, N.Y.) at a density of 1×10^5 cells/well. HEK293 cells genetically engineered to express FPRL1 cDNA (FPRL1/293 cells) were kindly provided by Dr. P. M. Murphy (National Institute of Allergy and Infectious Diseases, NIH). FPRL1/293 cells were suspended in DMEM supplemented with 10% FBS (Hyclone, Logan, Utah), 1 mM glutamine (Gibco-BRL, Grand Island, N.Y.), and 800 μg/ml geneticin (G418, Gibco-BRL). The cells were also plated on 4-well chamber slides at a density of 2×10^5 cells/well.
Fluorescence confocal microscope. Human macrophages or FPRL1/293 cells grown on chamber slides were treated with FPRL1 agonists for different periods at 37° C. The cells were fixed in 4% paraformaldehyde for 10 min at room temperature. Slides were washed with PBS and incubated with 5% normal goat serum (Sigma) in PBS, 0.05% Tween-20 (PBS-T-NGS), for 1 h to block nonspecific binding sites and for permeabilization. The anti-Aβ42 and anti-FPRL1 antibodies were applied and the slides were incubated for 1 h at room temperature. […] The slides were mounted with an anti-fade, water-based mounting medium with 4,6-diamidino-2-phenylindole (DAPI; Vector Lab, Burlingame, Calif.) and analyzed under a laser scanning confocal fluorescence microscope (Leica TCS-4D DMIRBE, Heidelberg, Germany). Excitation wavelengths of 365 (for DAPI), 488 (for FITC), and 568 (for rhodamine) nm were used to generate fluorescence emission in blue, green, and red respectively. […]

In another experiment the test system is FPRL1/293 cells. Briefly: Apoptosis of FPRL1/293 cells (annexin-V-FITC/PI flow cytometry). Format: cell-based, human. As to conditions: 48 h; 10 μM Aβ42 or 1 μM W pep. As for the experimental part:
as §1

Experiment [4] deals with human monocytes. Briefly: Ca2+ mobilization in fura-2 loaded human monocytes. Format: cell-based. From the text:
(§3) Reagents and cells. Aβ peptide (Aβ42) and the peptide with reversed sequence (Aβ42-1) were purchased from California Peptide Research (Napa, Calif.). All peptides were examined for endotoxin contamination and were negative at highest concentrations used in the study. Human peripheral blood monocytes were isolated from buffy coats (National Institutes of Health Clinical Center, Bethesda, Md.) enriched for mononuclear cells by using iso-osmotic Percoll gradient. The purity of the cell preparations was examined by morphology and was >90%. Rat basophilic leukemia cell line (RBL-2H3) transfected with epitope-tagged N-formylpeptide receptor (FPR) (designated ETFR) was a kind gift of Dr. R. Snyderman (Duke University, Durham, N.C.). cDNA cloning and establishment of FPRL1-transfected human embryonic kidney (HEK) 293 cells (FPRL1/293) were described previously (Gao J. L. & Murphy P. M. 1993 J Biol Chem 268:[…]). All the transfected cells were maintained in culture media as described (Su S. B. et al. 1999 J Exp Med 189:395-402).
(§4) Chemotaxis assays and measurement of calcium mobilization. Chemotaxis assays were performed using 48-well chemotaxis chambers (Deng X. et al. 1999 Blood 94:1165-1673). The results were expressed as the mean number (±SD) of migrated cells in three high-powered fields in three replicate samples. Chemotaxis index, which represented the fold increase in the number of cells migrated in response to chemoattractants over the cell response to control medium, also was used. Ca^+ mobilization was measured by stimulating fura-2 AM-loaded human monocytes or receptor-transfected cells with various agents (Deng X. et al. 1999 Blood 94:1165-1673; Su S. B. et al. 1999 J Exp Med 189:395-402) and recording the ratio of fluorescence at 340 and 380 nm in a luminescence spectrometer with FL WinLab program (Perkin-Elmer, Beaconsfield, UK).
Background: Calcium assays in cells follow changes in intracellular calcium, usually with a dye or a luminescent sensor.

Experiment [5] deals with human monocytes. In words: Chemotaxis (migration) of human monocytes, 48-well chamber. Format: cell-based.
Text: as §3, §4

Experiment [6] deals with mouse neutrophils. In words: Superoxide production in mouse neutrophils (Diogenes chemiluminescence). Format: cell-based. As for the experimental part:
The cell population was consistently composed of >90% neutrophils, as determined by light microscopy of DiffQuick-stained cytospins. Thus, hereafter we will refer to this cell preparation as neutrophils. Superoxide Production. […] Then a mixture of the superoxide-specific chemiluminescence indicator reagent Diogenes (National Diagnostics, Atlanta, Ga.) was added to the cells (50% of total reaction volume) with appropriate stimuli or vehicle control, and superoxide dismutase-inhibitable chemiluminescence was measured in a luminometer (Labsystems Luminoskan; Helsinki, Finland). […] For sequential stimulation experiments, 5×10^4 FPR −/− neutrophils were distributed into microcentrifuge tubes, and test substances were added. The mixture was then immediately transferred to a chemiluminescence plate. After incubation at 37° C. for 8 min (when fMLF was the first stimulus) or 9 min (when Aβ was the first stimulus), Diogenes reagent plus the final stimulus was added, and the activity was monitored for 10 min. […] Each condition was tested in triplicate, and the mean of the mean number (grand mean) of superoxide dismutase-inhibitable relative light units throughout the duration of the assay and the corresponding standard errors of grand means were calculated. […]

Experiment [7] has as its target T1, FPRL1. Briefly: Ca2+ mobilization in FPRL1/293 cells. Format: cell-based. From the text: (§5) Reagents and cells. Aβ peptide (Aβ42) and the peptide with reversed sequence (Aβ42-1) were purchased from California Peptide Research (Napa, Calif.). All peptides were examined for endotoxin contamination and were negative at highest concentrations used in the study. Human peripheral blood monocytes were isolated from buffy coats (National Institutes of Health Clinical Center, Bethesda, Md.) enriched for mononuclear cells by using iso-osmotic Percoll gradient. The purity of the cell preparations was examined by morphology and was >90%. […]
(§6) Chemotaxis assays and measurement of calcium mobilization. […] The results were expressed as the mean number (±SD) of migrated cells in three high-powered fields in three replicate samples. […] Ca^+ mobilization was measured by stimulating fura-2 AM-loaded human monocytes or receptor-transfected cells with various agents (Deng X. et al. 1999 Blood 94:1165-1673; Su S. B. et al. 1999 J Exp Med 189:395-402) and recording the ratio of fluorescence at 340 and 380 nm in a luminescence spectrometer with FL WinLab program (Perkin-Elmer, Beaconsfield, UK).

Experiment [8] has as its system mouse neutrophils. As to conditions: neutrophils from wild type mice, cited from earlier work.
For the next experiment, the target named is T2, FPR (Homo sapiens, UniProt P21462).
T2 construct: expressed in transfected cells; host or cells: RBL-2H3 (rat basophilic leukemia)
T2 sequence (P21462 1-350): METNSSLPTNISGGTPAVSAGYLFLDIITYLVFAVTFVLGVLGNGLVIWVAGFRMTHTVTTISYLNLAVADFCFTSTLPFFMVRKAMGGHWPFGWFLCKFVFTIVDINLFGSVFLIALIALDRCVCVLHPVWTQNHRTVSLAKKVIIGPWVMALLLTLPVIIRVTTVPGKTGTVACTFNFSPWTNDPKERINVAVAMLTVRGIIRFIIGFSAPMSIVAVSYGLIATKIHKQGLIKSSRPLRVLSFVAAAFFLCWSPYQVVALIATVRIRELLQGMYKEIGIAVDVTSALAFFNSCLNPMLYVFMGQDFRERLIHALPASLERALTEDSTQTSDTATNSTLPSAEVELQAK
Briefly: Ca2+ mobilization in ETFR cells (RBL-2H3 transfected with epitope-tagged FPR). Format: cell-based.
Text: as §5, §6

Experiment [9] concerns the target T1, FPRL1. Briefly: Chemotaxis of FPRL1/293 cells. Format: cell-based.
Text: as §5, §6

The target of experiment [10] is T1, FPRL1. Briefly: Aβ42/FPRL1 internalization in human macrophages, fluorescence confocal microscopy. It is filed as cell-based. The conditions noted are these: 30 min incubation at 37° C. The method, then: as §2, with “FPRL1/293 cells were suspended in DMEM supplemented with 10% FBS (Hyclone, Logan, Utah), 1 mM glutamine (Gibco-BRL, Grand Island, N.Y.), and 800 μg/ml geneticin (G418, Gibco-BRL). The cells were also plated on 4-well chamber slides at a density of 2×10^5 cells/well.” left out
Fluorescence confocal microscope. […] The slides were mounted with an anti-fade, water-based mounting medium with 4,6-diamidino-2-phenylindole (DAPI; Vector Lab, Burlingame, Calif.) and analyzed under a laser scanning confocal fluorescence microscope (Leica TCS-4D DMIRBE, Heidelberg, Germany). Excitation wavelengths of 365 (for DAPI), 488 (for FITC), and 568 (for rhodamine) nm were used to generate fluorescence emission in blue, green, and red respectively. […]

The target in experiment [11] is mouse N-formylpeptide receptor 2 (FPR2), on transfected HEK 293 cells or endogenous on mouse neutrophils and N9 microglial cells (mouse) (UniProt O88536). In words: cell-based or functional assay.
mouse N-formylpeptide receptor 2 (FPR2), on transfected HEK 293 cells or endogenous on mouse neutrophils and N9 microglial cells (mouse), sequence (O88536 whole entry): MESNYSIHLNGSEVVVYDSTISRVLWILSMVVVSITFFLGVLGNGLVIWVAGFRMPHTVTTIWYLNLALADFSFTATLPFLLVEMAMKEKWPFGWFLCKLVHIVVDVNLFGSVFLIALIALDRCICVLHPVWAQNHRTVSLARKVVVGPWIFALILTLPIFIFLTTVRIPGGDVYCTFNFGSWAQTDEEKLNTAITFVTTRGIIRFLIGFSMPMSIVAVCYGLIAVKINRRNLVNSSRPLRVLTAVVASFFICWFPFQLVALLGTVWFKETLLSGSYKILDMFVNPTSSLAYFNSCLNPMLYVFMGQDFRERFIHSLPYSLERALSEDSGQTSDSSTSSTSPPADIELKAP

For WKYMVm [W pep], the “Congo red positive fibrils” value in the experiment with macrophages [1] (incubation 24 h to 48 h) is “did not form Congo red positive fibrils”. For the same compound, the apoptosis result in the experiment on macrophages [2] and with FPRL1/293 cells was “did not increase the apoptosis” in each case. For the same compound, the “time to maximal FPRL1 internalization” value with FPRL1 [3] (37° C.) is 15 to 30 min. Also, the “time until FPRL1 is back on the cell surface after removal of agonist (receptor recycling)” value with FPRL1 [3] (agonist removed after 30 min) is recorded as 2 h.

As for fucoidan, in the experiment on human monocytes [4], the “Ca2+ mobilization in human monocytes” value is on record as “did not induce Ca^2+ mobilization” and the “effect of prior stimulation on subsequent Ca2+ flux response of monocytes to Aβ42 (desensitization)” value (shortened to “effect of prior stimulation”) is given as “did not affect monocyte response to subsequent stimulation with Aβ42”.

On to “Aβ42 “aged”: Aβ42 aged at 37° C., tested as the aggregated form”, for which the “induction of monocyte migration” value with human monocytes [5] is recorded as “lower potency than freshly dissolved peptide”.

In the case of `CSCC[C@H](NC=O)C(=O)N[C@@H](CC(C)C)C(=O)N[C@@H](Cc1ccccc1)C(=O)O` [fMLF, formyl-methionyl-leucyl-phenylalanine], the “effect of prior stimulation” value with human monocytes [4] is reported as “clearly inhibited the subsequent Ca^2+ flux response to Aβ42”. Besides, the “difference of EC50 of superoxide generation, FPR −/− versus FPR+/+ neutrophils” value with mouse neutrophils [6] worked out at 10 fold. Also, the “effect of pretreatment on superoxide response to 10 μM Aβ” value in the experiment with mouse neutrophils [6] (FPR −/− neutrophils, pretreated with 5 μM fMLF vs vehicle) is given as “markedly attenuated”. In addition, at FPRL1 [7] (prior stimulation), the “desensitization of Aβ42-induced Ca2+ flux in FPRL1/293 cells” value is listed as “desensitized”. Further, the “optimum of second peak of chemotaxis dose-response curve” value in the experiment with mouse neutrophils [8] was 10 µM. Further, in the experiment on mouse neutrophils [8] (peak due to FPR), the “optimum of first peak of chemotaxis dose-response curve” value is reported as about 500 nM.

For “GlyBSA: Glycated bovine albumin, a reported ligand for RAGE”, the “Ca2+ mobilization in ETFR cells” value in the experiment with FPR is “stimulated Ca^2+ mobilization”. Besides, in the experiment on human monocytes [4], the “Ca2+ mobilization in human monocytes” value was “potent inducer of Ca^2+ mobilization” and the “effect of prior stimulation” value was “able to cross-desensitize the cell response to Aβ42”. The “Ca2+ mobilization in FPRL1/293 cells” value with FPRL1 [7] was “stimulated Ca^2+ mobilization”.

Take `COc1cc2c(c(OC)c1OC)-c1ccc(OC)c(=O)cc1[C@@H](NC(C)=O)CC2` [colchicine]: the “inhibition of Aβ42-induced chemotaxis” value on FPRL1 [9] and with human monocytes [5] (monocytes) was “potent inhibitor of Aβ42-induced chemotaxis” each time. Moreover, the “effect on Congo red staining of macrophages incubated with Aβ42” value in the experiment on macrophages [1] (48 h incubation with Aβ42) is on record as “not significantly stained with Congo red”. The “effect on internalization of Aβ42/FPRL1 complexes” value at FPRL1 [10] and on FPRL1 [3] (30 min incubation at 37° C.) was “failed to internalize” each time.

Consider “bacterial chemotactic peptide formyl-methionyl-leucyl-phenylalanine (fMLF)”, for which the superoxide generation in neutrophils, EC50 in FPR -/- against FPR +/+ cells in [11] turned out to be 10 fold.
